Reference: ChEMBL document CHEMBL1201862, “PubChem BioAssay data set” (2004)
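Growth conditions: 96-well plates. Treatment: test compound, 48 hours, 5 concentrations. Analysis: linear interpolation between bracketing concentrations; unreached endpoints set to highest concentration. GI50 marks 50% less growth.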 Calls of active or inactive are those of the source. Cut-off read from the data, not from the text of the source: active = GI50 up to about 1.1 µM and inactive = higher.

What was measured:
Experiment in all cases: NCI anticancer screen, dose series, 48 h
[1] = test system: NCI-H226
[2] = test system: 786-0
[3] = test system: UACC-62
[4] = test system: CAKI-1
[5] = test system: SK-OV-3
[6] = test system: OVCAR-3
[7] = test system: SNB-75
[8] = test system: SF-268
[9] = test system: HOP-92
[10] = test system: SF-539
[11] = test system: CCRF-CEM
[12] = test system: HCC 2998
[13] = test system: U-251
[14] = test system: NCI-H522
[15] = test system: SN12C
[16] = test system: TK-10
[17] = test system: Malme-3M
[18] = test system: A549
[19] = test system: HT-29
[20] = test system: RPMI-8226

Row | SMILES | GI50 [1] | GI50 [2] | GI50 [3] | GI50 [4] | GI50 [5] | GI50 [6] | GI50 [7] | GI50 [8] | GI50 [9] | GI50 [10] | GI50 [11] | GI50 [12] | GI50 [13] | GI50 [14] | GI50 [15] | GI50 [16] | GI50 [17] | GI50 [18] | GI50 [19] | GI50 [20]
1 | CCOC(=O)C1Cc2[nH]c3ccccc3c2C(C)C1C (stereo not drawn) | 11.6 µM (inactive) | 14.6 µM (inactive) | 10.8 µM (inactive) | 16.4 µM (inactive) | 18.9 µM (inactive) | 15.6 µM (inactive) | 8.09 µM (inactive) | 19.5 µM (inactive) | 15.7 µM (inactive) | 16.5 µM (inactive) | 19.7 µM (inactive) | > 10 µM (inactive) | 18.5 µM (inactive) | 12.2 µM (inactive) | 18.4 µM (inactive) | 30 µM (inactive) | 16.9 µM (inactive) | 14.1 µM (inactive) | – | –
2 | CN(C)CCCNC(=O)c1cc(NC(=O)CCCn2c3ccccc3c3ccccc32)cn1C | 25.3 µM (inactive) | 80.9 µM (inactive) | 20.8 µM (inactive) | 21.8 µM (inactive) | > 100 µM (inactive) | 11.5 µM (inactive) | 43 µM (inactive) | 66.7 µM (inactive) | 2.13 µM (inactive) | 71.3 µM (inactive) | 29.6 µM (inactive) | – | 37.3 µM (inactive) | – | 48.5 µM (inactive) | 22.5 µM (inactive) | 17.2 µM (inactive) | 20.7 µM (inactive) | 47.6 µM (inactive) | 17.1 µM (inactive)
3 | N=C(N)c1ccc(/C=C/c2ccc(C(=N)N)cc2)cc1 | > 100 µM (inactive) | 62.1 µM (inactive) | 97.9 µM (inactive) | 94.6 µM (inactive) | – | > 100 µM (inactive) | 32.1 µM (inactive) | > 100 µM (inactive) | > 100 µM (inactive) | – | > 100 µM (inactive) | 90.8 µM (inactive) | 33.5 µM (inactive) | 63.2 µM (inactive) | 22.7 µM (inactive) | 24.5 µM (inactive) | 53 µM (inactive) | 39.7 µM (inactive) | 93.1 µM (inactive) | –
4 | CCOC(=O)c1ccc(/N=N/c2cc(C(=O)OCC)ccc2O)cc1 | – | 76 µM (inactive) | > 100 µM (inactive) | 46.6 µM (inactive) | > 100 µM (inactive) | – | – | > 100 µM (inactive) | > 100 µM (inactive) | > 100 µM (inactive) | > 100 µM (inactive) | – | > 100 µM (inactive) | 41.9 µM (inactive) | > 100 µM (inactive) | > 100 µM (inactive) | – | > 100 µM (inactive) | 43.6 µM (inactive) | > 100 µM (inactive)
5 | COc1ccc(/C=C2/CCS(=O)(=O)c3ccc(C)cc3C2=O)cc1OC | 14.3 µM (inactive) | 11.4 µM (inactive) | 5.97 µM (inactive) | 17.2 µM (inactive) | 21.6 µM (inactive) | 28.1 µM (inactive) | 12 µM (inactive) | 20.5 µM (inactive) | 2.36 µM (inactive) | 14.6 µM (inactive) | 8.75 µM (inactive) | 6.47 µM (inactive) | 12.8 µM (inactive) | – | 13.2 µM (inactive) | 13.6 µM (inactive) | – | 25.9 µM (inactive) | 13.9 µM (inactive) | 11.7 µM (inactive)
6 | COc1ccc(/N=C(/[N-]n2c(=O)c(C)nn(C)c2=S)N(c2ccc(OC)cc2)c2n[n+]3c(=O)c(C)nn(C)c3s2)cc1 | > 100 µM (inactive) | > 100 µM (inactive) | > 100 µM (inactive) | – | – | – | > 100 µM (inactive) | > 100 µM (inactive) | > 100 µM (inactive) | > 100 µM (inactive) | > 100 µM (inactive) | – | > 100 µM (inactive) | > 100 µM (inactive) | > 100 µM (inactive) | – | – | > 100 µM (inactive) | > 100 µM (inactive) | > 100 µM (inactive)
7 | CCN(CC)CCNc1c(OC)cc(C)c2sc3ccccc3c(=O)c12 | 3.4 µM (inactive) | 7.53 µM (inactive) | 1.79 µM (inactive) | 7.96 µM (inactive) | 13.9 µM (inactive) | 11.8 µM (inactive) | 12.9 µM (inactive) | 11 µM (inactive) | 16.9 µM (inactive) | 10.6 µM (inactive) | – | – | 4.34 µM (inactive) | 5.33 µM (inactive) | 2.79 µM (inactive) | 8.59 µM (inactive) | 2.13 µM (inactive) | 4.31 µM (inactive) | 2.61 µM (inactive) | 1.3 µM (inactive)
8 | CC(Cc1ccccc1)N(C)Cc1nc(C2CCC([N+](=O)[O-])O2)no1 (stereo not drawn) | 16.9 µM (inactive) | 11.9 µM (inactive) | 5.96 µM (inactive) | – | 24.5 µM (inactive) | – | 10.3 µM (inactive) | 28.1 µM (inactive) | 21.3 µM (inactive) | 3.32 µM (inactive) | 12.2 µM (inactive) | 4.17 µM (inactive) | 10.2 µM (inactive) | – | 2.51 µM (inactive) | 13.5 µM (inactive) | 11.9 µM (inactive) | 12.1 µM (inactive) | 2.77 µM (inactive) | 14.8 µM (inactive)
9 | Cc1cc(NS(=O)(=O)c2ccc(Nc3c4ccccc4nc4c(C(=O)N5CCN(CCO)CC5)cccc34)cc2)no1 | > 100 µM (inactive) | > 100 µM (inactive) | > 100 µM (inactive) | > 100 µM (inactive) | > 100 µM (inactive) | > 100 µM (inactive) | > 100 µM (inactive) | > 100 µM (inactive) | > 100 µM (inactive) | > 100 µM (inactive) | 43.9 µM (inactive) | 49 µM (inactive) | > 100 µM (inactive) | 79.4 µM (inactive) | > 100 µM (inactive) | > 100 µM (inactive) | > 100 µM (inactive) | > 100 µM (inactive) | > 100 µM (inactive) | –
10 | CCOC(=O)CNc1nc(=O)c2c(=O)oc(Cl)cc2o1 | > 100 µM (inactive) | 10.2 µM (inactive) | 18.2 µM (inactive) | 12.9 µM (inactive) | > 100 µM (inactive) | 12.9 µM (inactive) | 11 µM (inactive) | 14.7 µM (inactive) | 3.69 µM (inactive) | 6.79 µM (inactive) | 5.82 µM (inactive) | 15.6 µM (inactive) | 24.8 µM (inactive) | 2.7 µM (inactive) | 18.4 µM (inactive) | 13.6 µM (inactive) | 11.4 µM (inactive) | 18.3 µM (inactive) | 10.7 µM (inactive) | –
11 | Cc1ccc(S(=O)(=O)N(CC(O)COc2ccccc2)c2c(F)c(F)c(F)c(F)c2F)cc1 (stereo not drawn) | 17.9 µM (inactive) | 19.5 µM (inactive) | 13.7 µM (inactive) | 0.237 µM (active) | 19.9 µM (inactive) | 17.3 µM (inactive) | 16.3 µM (inactive) | 14.5 µM (inactive) | 8.49 µM (inactive) | 19.8 µM (inactive) | < 0.01 µM (active) | 17.3 µM (inactive) | 13.2 µM (inactive) | – | 16.6 µM (inactive) | 24.7 µM (inactive) | 22.8 µM (inactive) | 13.4 µM (inactive) | 16.2 µM (inactive) | 1.04 µM (active)
12 | CCOc1ccc2ccccc2c1NC1=NCCO1 | 25.7 µM (inactive) | > 100 µM (inactive) | 39.4 µM (inactive) | – | 39.5 µM (inactive) | – | 34.6 µM (inactive) | > 100 µM (inactive) | 15.3 µM (inactive) | 49.3 µM (inactive) | 39.1 µM (inactive) | 38.5 µM (inactive) | 45.3 µM (inactive) | – | > 100 µM (inactive) | > 100 µM (inactive) | 39.5 µM (inactive) | 61 µM (inactive) | 30.3 µM (inactive) | 19.5 µM (inactive)
13 | CO[C@]12CCC(=O)N1C=Cc1c2[nH]c2ccccc12 | > 100 µM (inactive) | > 100 µM (inactive) | > 100 µM (inactive) | > 100 µM (inactive) | – | > 100 µM (inactive) | > 100 µM (inactive) | > 100 µM (inactive) | > 100 µM (inactive) | > 100 µM (inactive) | > 100 µM (inactive) | > 100 µM (inactive) | – | – | – | > 100 µM (inactive) | > 100 µM (inactive) | > 100 µM (inactive) | > 100 µM (inactive) | > 100 µM (inactive)
14 | C1=C2C3=[N+](CCCC3)CC2Cc2sccc21 (stereo not drawn) | > 100 µM (inactive) | > 100 µM (inactive) | > 100 µM (inactive) | > 100 µM (inactive) | > 100 µM (inactive) | 64.4 µM (inactive) | > 100 µM (inactive) | > 100 µM (inactive) | 99.8 µM (inactive) | – | > 100 µM (inactive) | – | 29.4 µM (inactive) | 53 µM (inactive) | 92.7 µM (inactive) | > 100 µM (inactive) | 49.1 µM (inactive) | 30 µM (inactive) | 53.2 µM (inactive) | –
15 | O=S(=O)(O)c1cccc2c(/N=N/c3c(O)ccc4ccccc34)cccc12 | > 100 µM (inactive) | > 100 µM (inactive) | > 100 µM (inactive) | > 100 µM (inactive) | > 100 µM (inactive) | > 100 µM (inactive) | > 100 µM (inactive) | > 100 µM (inactive) | > 100 µM (inactive) | – | > 100 µM (inactive) | – | > 100 µM (inactive) | > 100 µM (inactive) | > 100 µM (inactive) | > 100 µM (inactive) | > 100 µM (inactive) | > 100 µM (inactive) | > 100 µM (inactive) | > 100 µM (inactive)
16 | COc1cc(C2c3cc4c(cc3[C@@H](NCCN3CCCCC3)C3COC(=O)[C@H]23)OCO4)cc(OC)c1O (stereo partly drawn) | 0.0324 µM (active) | 0.188 µM (active) | 0.298 µM (active) | 0.0802 µM (active) | 0.0526 µM (active) | 1.04 µM (active) | 0.256 µM (active) | 0.628 µM (active) | 0.265 µM (active) | 0.209 µM (active) | 0.055 µM (active) | – | 0.122 µM (active) | – | 2.04 µM (inactive) | 1.89 µM (inactive) | 0.451 µM (active) | 0.0484 µM (active) | 1.23 µM (inactive) | 0.4 µM (active)
